This note sets out measurements from PMC10591057 (Cell Reports Medicine, 2023).

In the assay the test system is CNV lesions. The experiment in a line: NHP laser-induced CNV, fluorescein angiography lesion grading. It is filed as in vivo, Chlorocebus sabaeus. The conditions noted are these: single ITV 1 mg Aflibercept.

For “aflibercept: current standard of care anti-VEGF, single ITV administration of 1 mg”, the “incidence of grade IV lesions, Myr-EBIN vs aflibercept groups” value was “no significant difference”.
